Common to all, as to type: cell-based
Experiment [1] concerns MRC-5 fibroblasts. Nature of the experiment: Tension-dependent apoptosis of MRC-5 fibroblasts in collagen matrices (relaxed), DAPI staining. Conditions: relaxed collagen matrix. As for the experimental part:
2×10^5 cells are seeded in each collagen matrix. For this purpose, 100 μl of the cell suspension (the appropriate cell titer is adjusted after the trypsinization in serum-free DMEM) are introduced into 1.5 ml reaction vessels pre-equilibrated at 37° C., 100 μl of the neutralized collagen solution are added, and the resulting solution is incubated at 37° C. for 4 min. The collagen concentration is 1.5 mg/ml. The cell/collagen suspension is seeded in 24-well cell culture plates or in 3.5 cm culture dishes. The matrix is polymerized at 37° C. for 60 min.
The matrices are covered with a layer of culture medium (DMEM+10% FCS+50 μg/ml ascorbic acid) and cultivated in an incubator at 37° C. and 8.5% by volume CO2 in a water vapor-saturated air atmosphere for 24 h.
The adherent matrix is cautiously detached with a spatula from the substrate and “floats” in the culture medium without contact with the substrate. The tension is abolished. The cultivation takes place for the period stated in each case.
The cells are cultivated as stated in example 11. Day “0” corresponds to the time after 24 h cultivation with ascorbic acid-containing medium before further cultivation under tensioned or relaxed conditions. After the stated times, the cell/collagen matrix is fixed in 4% (w/v) paraformaldehyde in PBS, followed by DAPI staining. […]

The test system of experiment [2] is MRC-5 fibroblasts. The experiment is described as follows: Incubation of fibroblasts with anti-apoptotic peptides: TSP-1 induced apoptosis, DAPI staining. Conditions: 24 h; for Inhibition index [%]: 100−(measured apoptosis index*100/control apoptosis index), 1 μg/ml TSP-1 + peptide 1 mM; for Apoptosis index [%]: static, fresh medium with 1 μg/ml TSP-1 + peptide 1 mM, 3 independent experiments, average ± SD. The procedure:
The cells are cultivated under static culture conditions as in example 1/variant 1B1. The cells are seeded in the appropriate culture vessels (e.g. 24-well plate/0.5 ml per well) and employed for the test 3 days after complete confluence is reached. The cells are provided with new medium: • (a) fresh culture medium [basic rate of apoptosis] • (b) fresh culture medium with 1 μg/ml TSP-1 [apoptosis-inducing substance; control] • (c) culture medium (b)+peptide of SEQ ID NO 1; 1 mM • (d) culture medium (b)+peptide of SEQ ID NO 2; 1 mM • (e) culture medium (b)+peptide of SEQ ID NO 3; 1 mM • (f) culture medium (b)+peptide of SEQ ID NO 4; 1 mM • (g) culture medium (b)+peptide of SEQ ID NO 7; 1 mM • (h) culture medium (b)+peptide of SEQ ID NO 8; 1 mM • (i) culture medium (b)+peptide of SEQ ID NO 9; 1 mM • (j) culture medium (b)+peptide of SEQ ID NO 10; 1 mM • (k) culture medium (b)+peptide of SEQ ID NO 11; 1 mM • (l) culture medium (b)+peptide of SEQ ID NO 5; 1 mM • (m) culture medium (b)+peptide of SEQ ID NO 6; 1 mM
After incubation under culture conditions (example 1) for 24 h, the cells are fixed, stained with DAPI and examined morphologically under the fluorescence microscope. The apoptotic cells and the total number of cells are determined, and the apoptosis index is calculated (percent of apoptotic cells). The data from 3 independent experiments are indicated in the following table, indicating the averages and the standard deviation.
The inhibition index of the peptides employed is calculated as follows:
Inhibition index [%]=100−(measured apoptosis index* 100/control apoptosis index)

The subject of experiment [3] is MRC-5 fibroblasts. The experiment is described as follows: Rate of apoptosis of statically cultivated MRC-5 fibroblasts, DAPI staining. The settings on record: for Apoptosis [%]: static, 24 h, substance in fresh medium, or conditioned medium alone. As for the experimental part:
The MRC-5 cell line used is seeded in ungelatinized cell culture vessels. The subsequent cultivation takes place in an incubator at 37° C. and 5% by vol. CO2 in a water vapor-saturated atmosphere. The culture medium is changed every second to third day and, after confluence is reached, the cells are passaged with a division rate from 1:5 to 1:10.
The culture supernatant from a Petri dish is aspirated off, and the cell lawn is fixed with 1 ml of formaldehyde solution on ice for 15 minutes, washed twice with 2 ml of PBS, treated with 0.5 ml of DAPI solution for 15 minutes, washed with PBS and evaluated under the fluorescence microscope. The UV filter set and a 20× or 40× objective are used. 500-1 000 cells are selected at random, and the cells with apoptotic nuclei are counted.
The apoptosis index is calculated by the following formula: […]
The used culture medium from a confluent MRC-5 fibroblast culture is removed, and the cell lawn is washed once with culture medium and cultivated under the stated conditions for 24 h.
The used culture medium from a confluent culture is removed, and the cell lawn is washed once with culture medium and cultivated under the stated conditions for 24 h.

Experiment [4] concerns MRC-5 fibroblasts. Nature of the experiment: Rate of apoptosis of dynamically cultivated MRC-5 fibroblasts (cone and plate shear apparatus), DAPI staining. As for the experimental part: The fibroblasts are initially cultivated under static conditions until confluence is reached. This is followed by cultivation under dynamic conditions in the cone and plate shear apparatus (after Bussolori et al. (1982) Rev. Sci. Instrum. 53, 1851-1854) for 24 h.
This is done by precultivation of the cells initially in gelatinized culture dishes (◯=35 mm) with 0.15 ml/cm^2 culture medium and then further cultivation under turbulent or laminar flow conditions in the cone and plate shear apparatus for a maximum of 24 h. The flow conditions result from the angle of the cone. The flow over the cells is turbulent at a cone angle of 5° and is laminar at a cone angle of 0.5°.
Before use, the cone and plate shear apparatus is cleaned with a soft cloth and 70% (v/v) ethanol, the cone is sterilized and the apparatus is equilibrated at 37° C. in a heating cabinet. […]
The culture supernatant from a Petri dish is aspirated off, and the cell lawn is fixed with 1 ml of formaldehyde solution on ice for 15 minutes, washed twice with 2 ml of PBS, treated with 0.5 ml of DAPI solution for 15 minutes, washed with PBS and evaluated under the fluorescence microscope. […] 500-1 000 cells are selected at random, and the cells with apoptotic nuclei are counted. […]

With `CO[C@@H]1C(=O)O[C@H](C)[C@H](C)/C=C(\C)C[C@H](C)C(=O)N[C@@H](C)C(=O)N(C)[C@H](Cc2c[nH]c3ccccc23)C(=O)N[C@H]1c1ccc(O)cc1` [chondramide A, reference compound], in the experiment with MRC-5 fibroblasts [1] (Example 14, 1 μM for 1 h before detachment, 8 h further cultivation), the “Apoptosis [%]” value is given as 1.0 ± 0.2%.

Turning to “K-R-A-Y-V-V-M-W-K-K (KRAYVVMWKK) [SEQ ID NO 5]”, in the experiment with MRC-5 fibroblasts [2], the “Inhibition index [%]” value came out at 90.1 ± 4.9% and the “Apoptosis index [%]” value came out at 0.42 ± 0.21%.

For the molecule “K-R-E-Y-V-V-M-W-K-K (KREYVVMWKK) [SEQ ID NO 6]”, in the experiment with MRC-5 fibroblasts [2], the “Inhibition index [%]” value is listed as 94.4 ± 4.2% and the “Apoptosis index [%]” value was 0.24 ± 0.18%.

R-A-Y-V-V-M (RAYVVM) [SEQ ID NO 1]: in the experiment with MRC-5 fibroblasts [2], the “Inhibition index [%]” value is recorded as 71.4 ± 6.8% and the “Apoptosis index [%]” value stood at 1.21 ± 0.29%.

As to R-D-Y-V-V-M (RDYVVM) [SEQ ID NO 11], in the experiment with MRC-5 fibroblasts [2], the “Inhibition index [%]” value was determined as 38.9 ± 16.7% and the “Apoptosis index [%]” value was 2.66 ± 0.71%.

Regarding R-E-Y-V-V-M (REYVVM) [SEQ ID NO 4], in the experiment with MRC-5 fibroblasts [2], the “Inhibition index [%]” value is 80.4 ± 7.0% and the “Apoptosis index [%]” value came to 0.87 ± 0.32%.

On to R-G-Y-V-V-M (RGYVVM) [SEQ ID NO 7], for which, in the experiment on MRC-5 fibroblasts [2], the “Inhibition index [%]” value is on record as 53.7 ± 13.9% and the “Apoptosis index [%]” value amounted to 2.00 ± 0.59%.

Take R-M-Y-V-V-M (RMYVVM) [SEQ ID NO 8]: in the experiment on MRC-5 fibroblasts [2], the “Inhibition index [%]” value worked out at 42.8 ± 6.9% and the “Apoptosis index [%]” value amounted to 2.46 ± 0.29%.

R-N-Y-V-V-M (RNYVVM) [SEQ ID NO 10]: in the experiment with MRC-5 fibroblasts [2], the “Inhibition index [%]” value is 13.5 ± 16.2% and the “Apoptosis index [%]” value was found to be 3.70 ± 1.11%.

For R-T-Y-V-V-M (RTYVVM) [SEQ ID NO 9], in the experiment on MRC-5 fibroblasts [2], the “Inhibition index [%]” value came out at 25.4 ± 11.8% and the “Apoptosis index [%]” value is 3.19 ± 0.50%.

As to R-W-Y-V-V-M (RWYVVM) [SEQ ID NO 2], in the experiment with MRC-5 fibroblasts [2], the “Inhibition index [%]” value is 53.7 ± 6.8% and the “Apoptosis index [%]” value came to 2.00 ± 0.29%.

Consider R-Y-Y-V-V-M (RYYVVM) [SEQ ID NO 3], for which, in the experiment with MRC-5 fibroblasts [2], the “Inhibition index [%]” value is listed as 65.3 ± 0.9% and the “Apoptosis index [%]” value came out at 1.45 ± 0.04%.

On to thrombospondin 1 [TSP-1], for which the “Apoptosis [%]” value was 10.5 ± 0.5% with MRC-5 fibroblasts [1] (Example 13, DMEM/FCS + substance, 24 h, antibodies 50 μg/ml, Tsp1 20 μg/ml); 5.6 ± 0.2% with MRC-5 fibroblasts [3] (Example 6); 5.6 ± 0.2% with MRC-5 fibroblasts [3] (Example 7); 0.4 ± 0.1% with MRC-5 fibroblasts [4] (dynamic cultivation, 24 h, conditioned medium alone or fresh medium + TSP-1). Moreover, in the experiment on MRC-5 fibroblasts [3] (static culture), the “Effect on apoptosis of statically cultivated fibroblasts (in words)” value is “increase in spontaneous apoptosis”. In addition, the “Effect on apoptosis of dynamic fibroblast cell culture (in words)” value with MRC-5 fibroblasts [4] (dynamic culture) was “no effect on apoptosis”.

(Values after US7582725B2, “Agents, which inhibit apoptosis in cells that are involved in wound healing” (Dermatools Biotech GmbH, priority 2001, dated 2009).)
